Patent US12398154B2, “Azaquinazoline pan-KRas inhibitors” (Mirati Therapeutics, Inc., priority 2020, dated 2025)

Experiments:
[1] = system: pERK in PSN1 cells; assay: Inhibition of KRas phosphorylation of ERK (Cisbio HTRF pERK assay); details: Homo sapiens, PSN1, 3 h, read-out: Inhibition (HTRF IC50) of KRas-mediated Phosphorylation of ERK, PSN1
Protocol: To harvest cells from flask using 0.05% Trypsin/EDTA solution. Add 10 mL of media to stop trypsinizing. Pipette the cells into a conical bottom 50 mL centrifuge tube and centrifuge 5 min×1000 rpm. • 2. Re-suspend the cell pellet in media, take a cell count, and then adjust the cell density using fresh media. • 3. Seed 6,000 cells into cell culture plate with 50 μL media. […] Incubate cell plate overnight in a 37° C., 5% CO2 incubator. • Compound titrations • 1. Use Tecan to complete the compound addition. Compounds start from 10 uM top, 3-fold dilution, and 10 doses. The final DMSO concentration is 0.8%. Dispensed 0.2 uM Trametinib as Min control. • 2. Incubate cell plate for 3 hrs in the incubator. • Detection with cisbio pERK HTRF kit • 1. […] At the end of the compound treatment, flick-off the media. • 3. Add 35 μL of lysis buffer per well using a Multidrop Combi. Then place on a plate agitator shaking at 300 rpm at 4° C. for 40 mins. • 4. Make up the HTRF antibody buffer. For each assay plate, mix 50 μL of d2-conjugate antibody with 950 μL of detection buffer. Similarly, mix 50 μL of Cryptate antibody with 950 μL of detection buffer. Then mix the two diluted antibodies together. • 5. Dispense 3.4 μL the antibody buffer to wells of an empty assay plate. Seal the plate and centrifuge plate 30 sec×1000 rpm. • 6. At the end of the 4° C. lysis, centrifuge the lysate plates 3 mins×1500 rpm. • 7. Use the Bravo to transfer 13.6 μL of lysate from cell culture plate to assay plate.
Then incubate assay plate for 2 hrs at room temperature. […] At the end of incubation, read plate on the Envision after centrifuging plate 30 sec× • 1000 rpm.

[2] = system: pERK in ASPC1 cells; assay: as above; details: Homo sapiens, ASPC1, read-out: Inhibition (HTRF IC50) of KRas-mediated Phosphorylation of ERK, AsPC-1
[3] = target: KRas G12V (Homo sapiens, UniProt P01116, G12V); assay: biochemical;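 further: KRas binding measured by TR-FRET displacement at room temperature, IC50 fitted from percent of control values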
Protocol: (§1) The ability of a compound to bind to KRas was measured using a TR-FRET displacement assay. […] After a 60-minute incubation at room temperature, the reaction was measured using a BMG LABTECH CLARIO star Plus via TR-FRET. […] The POC values were fit to a 4-parameter IC50 equation and the IC50 value reported.

[4] = system: pERK in MKN1 cells; assay: Inhibition of KRas phosphorylation of ERK (Cisbio HTRF pERK assay); details: Homo sapiens, MKN-1, 3 h, read-out: Inhibition (HTRF IC50) of KRas-mediated Phosphorylation of ERK, MKN1
[5] = system: pERK in A549 cells; assay: as above; details: Homo sapiens, A549, read-out: Inhibition (HTRF IC50) of KRas-mediated Phosphorylation of ERK, A549
[6] = target: KRas G12R (Homo sapiens, UniProt P01116, G12R); assay: biochemical;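 further: TR-FRET displacement assay of compound binding to KRas, read after one hour at room temperature, potency from a four-parameter fit of percent-of-control values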
Protocol: as §1

[7] = system: pERK in H460 cells; assay: Inhibition of KRas phosphorylation of ERK (Cisbio HTRF pERK assay); details: Homo sapiens, NCI-H460, read-out: Inhibition (HTRF IC50) of KRas-mediated Phosphorylation of ERK, H460
[8] = target: KRas G12D (Homo sapiens, UniProt P01116, G12D); assay: biochemical;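 further: TR-FRET displacement binding assay on KRas, read after a one-hour incubation at room temperature, IC50 fitted from percent-of-control values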
Protocol: as §1

[9] = system: pERK in HCT116 cells; assay: Inhibition of KRas phosphorylation of ERK (Cisbio HTRF pERK assay); details: Homo sapiens, HCT-116, read-out: Inhibition (HTRF IC50) of KRas-mediated Phosphorylation of ERK, HCT116
[10] = system: pERK in H727 cells; assay: as above; details: Homo sapiens, NCI-H727, read-out: Inhibition (HTRF IC50) of KRas-mediated Phosphorylation of ERK, H727

Sequence of KRas G12D (P01116 1-169 isoform P01116-2 G12D): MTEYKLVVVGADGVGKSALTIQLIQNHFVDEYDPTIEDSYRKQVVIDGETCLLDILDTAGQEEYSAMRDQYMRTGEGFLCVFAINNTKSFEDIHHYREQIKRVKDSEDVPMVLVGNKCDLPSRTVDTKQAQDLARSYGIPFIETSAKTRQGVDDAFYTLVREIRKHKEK
Sequence of KRas G12R (P01116 1-169 isoform P01116-2 G12R): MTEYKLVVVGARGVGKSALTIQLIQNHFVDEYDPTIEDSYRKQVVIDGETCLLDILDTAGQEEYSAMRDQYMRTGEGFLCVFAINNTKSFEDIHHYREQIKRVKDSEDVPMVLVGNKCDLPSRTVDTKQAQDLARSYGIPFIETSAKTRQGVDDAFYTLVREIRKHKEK
Sequence of KRas G12V (P01116 1-169 isoform P01116-2 G12V): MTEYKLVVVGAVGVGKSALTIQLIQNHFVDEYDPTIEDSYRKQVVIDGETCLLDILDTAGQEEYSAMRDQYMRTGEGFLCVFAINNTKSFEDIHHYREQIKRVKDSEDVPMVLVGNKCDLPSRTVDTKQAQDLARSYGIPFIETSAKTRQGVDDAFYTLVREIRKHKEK

| IC50 [1] [nM] | IC50 [2] [nM] | IC50 [3] [nM] | IC50 [4] [nM] | IC50 [5] [nM] | IC50 [6] [nM] | IC50 [7] [nM] | IC50 [8] [nM] | IC50 [9] [nM] | IC50 [10] [nM] | SMILES |
| --- | --- | --- | --- | --- | --- | --- | --- | --- | --- | --- |
| 7180 | 228 | 15 | 48 | 185 | 11 | 182 | 13 | 346 | 551 | CCc1c(F)ccc2cc(O)cc(-c3ncc4c(N5CCCC6(CCC6O)C5)nc(OC[C@@]56CCCN5C[C@H](F)C6)nc4c3F)c12 (stereo partly drawn) [Example 351, 6-(7-(8-ethyl-7-fluoro-3-hydroxynaphthalen-1-yl)-8-fluoro-2-(((2R,7aS)-2-fluorohexahydro-1H-pyrrolizin-7a-yl)methoxy)pyrido[4,3-d]pyrimidin-4-yl)-6-azaspiro[3.5]nonan-1-ol] |
| ≥ 10000 | 121 | ≤ 2 | 26 | 219 | ≤ 2 | 117 | ≤ 2 | 645 | 578 | CCc1c(F)ccc2cc(O)cc(-c3ncc4c(N5CCCC6(CNS(=O)(=O)N6)C5)nc(OCC5(CN(C)C)CC5)nc4c3F)c12 (stereo not drawn) [Example 364, 7-(2-((1-((dimethylamino)methyl)cyclopropyl)methoxy)-7-(8-ethyl-7-fluoro-3-hydroxynaphthalen-1-yl)-8-fluoropyrido[4,3-d]pyrimidin-4-yl)-2-thia-1,3,7-triazaspiro[4.5]decane 2,2-dioxide] |
| 748 | 195 | ≤ 2 | 8 | 114 | ≤ 2 | 175 | ≤ 2 | 190 | 16 | C#Cc1c(F)ccc2cc(O)cc(-c3ncc4c(N5CC6CC(O)CC5C6)nc(OC[C@@]56CCCN5C[C@H](F)C6)nc4c3F)c12 (stereo partly drawn) [Example 390, 6-(7-(8-ethynyl-7-fluoro-3-hydroxynaphthalen-1-yl)-8-fluoro-2-(((2R,7aS)-2-fluorohexahydro-1H-pyrrolizin-7a-yl)methoxy)pyrido[4,3-d]pyrimidin-4-yl)-6-azabicyclo[3,2,1]octan-3-ol] |
| ≥ 10000 | 158 | ≤ 2 | 46 | 567 | ≤ 2 | 1070 | ≤ 2 | 1720 | 368 | C#Cc1c(F)ccc2cc(O)cc(-c3ncc4c(N5CCCn6nc(N)cc6C5)nc(OC[C@@]56CCCN5C[C@H](F)C6)nc4c3F)c12 [Example 394, 4-(4-(2-amino-7,8-dihydro-4H-pyrazolo[1,5-a][1,4]diazepin-5(6H)-yl)-8-fluoro-2-(((2R,7aS)-2-fluorohexahydro-1H-pyrrolizin-7a-yl)methoxy)pyrido[4,3-d]pyrimidin-7-yl)-5-ethynyl-6-fluoronaphthalen-2-ol] |
| 3820 | 426 | ≤ 2 | 20 | 96 | ≤ 2 | 182 | 6 | 487 | 79 | Oc1cc(-c2ncc3c(N4CC5CC(O)CC4C5)nc(OC[C@@]45CCCN4C[C@H](F)C5)nc3c2F)c2c(Br)c(F)ccc2c1 (stereo partly drawn) [Example 403, 6-(7-(8-bromo-7-fluoro-3-hydroxynaphthalen-1-yl)-8-fluoro-2-(((2R,7aS)-2-fluorohexahydro-1H-pyrrolizin-7a-yl)methoxy)pyrido[4,3-d]pyrimidin-4-yl)-6-azabicyclo[3.2.1]octan-3-ol] |
| 6730 | 238 | ≤ 2 | 45 | 247 | ≤ 2 | 155 | ≤ 2 | 2210 | 114 | O=C1CC2(CCCN(c3nc(OC[C@@]45CCCN4C[C@H](F)C5)nc4c(F)c(-c5cc(O)cc6ccc(F)c(Br)c56)ncc34)C2)N1 (stereo partly drawn) [Example 405, 6-(7-(8-bromo-7-fluoro-3-hydroxynaphthalen-1-yl)-8-fluoro-2-(((2R,7aS)-2-fluorohexahydro-1H-pyrrolizin-7a-yl)methoxy)pyrido[4,3-d]pyrimidin-4-yl)-1,6-diazaspiro[3.5]nonan-2-one] |
